Laboratory results as given in US20250186442A1, “Obicetrapib and Ezetimibe Combination Treatment and Fixed Dose Pharmaceutical Compositions” (NewAmsterdam Pharma B.V., priority 2022, published 2025).

Legend:
[1] = Stability study at 70° C./75% RH (XRPD physical stability, HPLC purity); format: physicochemical; conditions: 70° C. at 75% relative humidity
From the text: FIG. 54 is a plot of x-ray powder diffraction pattern taken of crystalline obicetrapib hemicalcium, and FIG. 55 is a plot of x-ray powder diffraction patterns taken of crystalline obicetrapib hemicalcium under stress conditions. In FIG. 55, there are four diffraction patterns shown based on stability study set forth in Example 11.27. Pattern 1 is an x-ray powder diffraction pattern of a sample of amorphous obicetrapib hemicalcium. Pattern 2 is the x-ray powder diffraction pattern of a sample of crystalline obicetrapib hemicalcium. In pattern 3, the sample of crystalline obicetrapib hemicalcium was exposed to 70° C. at 75% relative humidity for one day. […] Pattern 1 was taken before the sample was placed on stability.
Stability study was conducted on crystalline and amorphous forms of obicetrapib at 70° C./75% relative humidity (RH). The solids were placed into a 4.0 ml glass vial without caps (open condition) and stored at 70° C./75% RH. Samples were pulled out of the stability chamber at day 1 (24 hours) and at 7-day time point. The solids were analyzed by XRPD for physical stability and by HPLC for chemical purity. The sample collected at each time point was dissolved in methanol before HPLC analysis. In order to minimize the effect of potential analyte adsorption on the filter, the initial 0.5 mL of supernatant passing through the filter was discarded prior to collecting sample for HPLC analysis. Purity for each sample was determined based on peak area percent and compared to the sample at T=0.

[2] = Kinetic solubility in FaSSIF (pH 6.5) at 37° C.; format: physicochemical; conditions: FaSSIF pH 6.5, 37° C., as obicetrapib free acid
From the text: (§1) The amorphous form has a higher kinetic solubility and dissolution rate than the crystalline form (and by extension obicetrapib itself). Both crystalline and amorphous obicetrapib hemicalcium kinetic solubility determinations were made in biorelevant media at different pHs, namely at about 5.0 (FeSSIF conditions) and at pH of about 6.5 (FaSSIF) conditions as set forth in Example 11.28.
The concentrations in Table X are those of obicetrapib (i.e., the free acid).
(§2) The solids were magnetically stirred at 600 RPM in a shaker bath and samples were drawn with a 1.0 ml syringe at T=15 mins, 30 mins, 60 mins, 90 mins and 120 mins. The solubility was measured using HPLC method provided by the client. The compound was added to 4.0 ml glass vials at approximately 20.0 mg/ml. Samples were agitated with a vortex mixer for about 5 minutes to ensure the presence of undissolved excess powder. The sample collected at each time point was centrifuged at 1200 RPM, filtered with 0.45 μm Polytetrafluoroethylene (PTFE) filters and diluted with methanol before HPLC analysis. In order to minimize the effect of potential analyte adsorption on the filter, the initial 0.5 mL of supernatant passing through the filter was discarded prior to collecting sample for HPLC analysis.

[3] = Kinetic solubility in FeSSIF (pH 5.0) at 37° C.; format: physicochemical; conditions: FeSSIF pH 5.0, 37° C., as obicetrapib free acid
From the text: as §1
The concentrations in Table W are those of obicetrapib (i.e., the free acid).
as §2

LDL-C [4] = conditions: cited from earlier work
[5] = in water; cited from earlier work
LDL-C [6] = test: ROSE2 phase 2b clinical trial - LDL-C; format: in vivo, human; conditions: ROSE2; ezetimibe added on top of obicetrapib
Method: The primary objective of this study is to evaluate the effect of obicetrapib 10 mg+ezetimibe 10 mg combination therapy compared with placebo, when used as an adjunct to high-intensity statin therapy, on LDL-C at Day 84.
The secondary objectives of this study include the following, in hierarchical order: • To evaluate the effect of obicetrapib 10 mg monotherapy compared with placebo, when used as an adjunct to high-intensity statin therapy, on LDL-C at Day 84; • To evaluate the effect of obicetrapib 10 mg+ezetimibe 10 mg combination therapy compared with placebo, when used as an adjunct to high-intensity statin therapy, on ApoB at Day 84; and • To evaluate the effect of obicetrapib 10 mg monotherapy compared with placebo, when used as an adjunct to high-intensity statin therapy, on ApoB at Day 84.
This study will be a placebo-controlled, double-blind, randomized, Phase 2 study to evaluate the efficacy, safety, and tolerability of obicetrapib 10 mg, both in combination with ezetimibe 10 mg and as monotherapy, as an adjunct to high-intensity statin therapy. This study will take place at approximately 20 sites in the United States.
Up to 2 weeks after the Screening Visit, participants will return to the site on Day 1 (Visit 2) and confirm study eligibility before being randomized and beginning treatment. Approximately 114 eligible participants (38 participants per treatment group) will be randomized in a 1:1:1 ratio to 1 of the following treatment groups: • Combination therapy: Obicetrapib 10 mg+ezetimibe 10 mg (administered as one 10 mg obicetrapib tablet and one 10 mg ezetimibe capsule); • Obicetrapib monotherapy: Obicetrapib 10 mg (administered as one 10 mg obicetrapib tablet and 1 placebo capsule); or • Placebo (administered as 1 placebo tablet and 1 placebo capsule).
During the 12-week Treatment Period, the assigned study drugs will be administered by the participants orally with water, once daily on Day 1 to Day 84 at approximately the same time each morning. Participants will return to the site on Day 28 (+2 days), Day 84 (+2 days), and Day 112 (+2 days) for efficacy, safety, and pharmacokinetic (PK) assessments. Participants, Investigators, the Clinical Research Organization (CRO), and the Sponsor will be blinded to all lipid results from Day 1 (Visit 2) for the first participant until all enrolled participants complete the Day 84 (End of Treatment) visit or are withdrawn from the study, in order to protect blinding to treatment assignment.
The primary efficacy endpoint is the percent change from Day 1 to Day 84 in LDL-C for the obicetrapib 10 mg+ezetimibe 10 mg combination treatment group compared with the placebo group.
The secondary efficacy endpoints include the following, in hierarchical order: • Percent change from Day 1 to Day 84 in LDL-C for the obicetrapib 10 mg monotherapy • treatment group compared with the placebo group; • Percent change from Day 1 to Day 84 in ApoB for the obicetrapib 10 mg+ezetimibe 10 mg • combination treatment group compared with the placebo group; and • Percent change from Day 1 to Day 84 in ApoB for the obicetrapib 10 mg monotherapy treatment group compared with the placebo group.
The exploratory efficacy endpoints include the following: • Percent change from Day 1 to Day 84 in non-HDL-C, VLDL-C, HDL-C, TG, ApoE, Lp(a), and HDL-ApoE for the obicetrapib 10 mg+ezetimibe 10 mg combination treatment group compared with the placebo group and for the obicetrapib 10 mg monotherapy treatment group compared with the placebo group; and • Proportion of participants at Day 84 that achieve LDL-C<2.6 mmol/L (<100 mg/dL), LDL-C<1.8 mmol/L (<70 mg/dL), and LDL-C<1.3 mmol/L (<50 mg/dL) for the obicetrapib 10 mg+ezetimibe 10 mg combination treatment group compared with the placebo group and for the obicetrapib 10 mg monotherapy treatment group compared with the placebo group. […]

[7] = Moisture uptake at high relative humidity (hygroscopicity); format: physicochemical; conditions: relative humidities approaching 90%
From the text: When exposed to relative humidities approaching 90%, moisture uptake has been measured to be typically less than about 5% for example. […] Other drawbacks commonly associated with manufacturing and using amorphous materials are similarly not present. For example, amorphous materials are often challenging to make chemically pure.

CCOC(=O)N1c2ccc(C(F)(F)F)cc2[C@@H](N(Cc2cc(C(F)(F)F)cc(C(F)(F)F)c2)c2ncc(OCCCC(=O)[O-])cn2)C[C@H]1CC.CCOC(=O)N1c2ccc(C(F)(F)F)cc2[C@@H](N(Cc2cc(C(F)(F)F)cc(C(F)(F)F)c2)c2ncc(OCCCC(=O)[O-])cn2)C[C@H]1CC.[Ca+2] [Crystalline obicetrapib hemicalcium, reference compound]
physical stability by x-ray powder diffraction ([1]; 7 days): the result remains the same | physical stability by x-ray powder diffraction ([1]; one day): near total loss of crystallinity | Concentration in Solution ([2]; 15 mins): 30 µg/mL | Concentration in Solution ([2]; 30 mins): 48 µg/mL | Concentration in Solution ([2]; 60 mins): 84 µg/mL | Concentration in Solution ([2]; 90 mins): 107 µg/mL | Concentration in Solution ([2]; 120 mins): 144 µg/mL | Concentration in Solution ([3]; 15 mins): 85 µg/mL | Concentration in Solution ([3]; 30 mins): 169 µg/mL | Concentration in Solution ([3]; 60 mins): 369 µg/mL | Concentration in Solution ([3]; 90 mins): 453 µg/mL | Concentration in Solution ([3]; 120 mins): 529 µg/mL

O=C1[C@H](CC[C@H](O)c2ccc(F)cc2)[C@@H](c2ccc(O)cc2)N1c1ccc(F)cc1 [Ezetimibe, (3R,4S)-1-(4-fluorophenyl)-3-[(3S)-3-(4-fluorophenyl)-3-hydroxypropyl]-4-(4-hydroxyphenyl)azetidin-2-one]
incremental reduction in LDL-C levels (LDL-C [4]; ezetimibe in combination with statins (Catapano et al. 2016)): 15-20% | LDL-C levels reduced (LDL-C [4]; ezetimibe mono-therapy, hyperlipidemic patients (Catapano et al. 2016)): 15-22% | mean reduction in LDL-C compared with placebo (LDL-C [4]; ezetimibe monotherapy, hypercholesterolemia, meta-analysis of 8 randomized studies): 18.58% | greater reduction in LDL-C compared with statin alone (LDL-C [4]; statin and ezetimibe in combination, meta-analysis of 27 studies): 15.1% | solubility [5]: practically insoluble | additional/incremental (median) reduction of LDL-C (LDL-C [6]): about 32%

CCOC(=O)N1c2ccc(C(F)(F)F)cc2[C@@H](N(Cc2cc(C(F)(F)F)cc(C(F)(F)F)c2)c2ncc(OCCCC(=O)O)cn2)C[C@H]1CC [amorphous obicetrapib hemicalcium]
moisture uptake [7]: less than 5% | physical stability by x-ray powder diffraction ([1]; 7 days): remained amorphous | physical stability by x-ray powder diffraction ([1]; 14 days): remained amorphous
